Experimental data published in the supplement of paper PMC11208160.

Experiment: recombinant barcode read abundance after kanamycin selection (control-corrected) (log10(CPM+1)); higher = more efficient recombination; sequences stand for … in AGTGCAGAGAAAATCGGCCAGTTTTCTCTGCCTGCAGTCCGCATGCCGT…AGATTTATGCAGCGGACTGCCTTTCTCCCAAAGTGATAAACCGGACAGTATCATGGACCGGTTTTCCCGGTAATCCGTATTTGCAAGGTTGGTTTCACT; site = the 11-nt target
Summary of the method: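 Recombination efficiency comes from barcode counts at recombinant junctions, converted to counts per million, averaged and corrected against the control. Values appear as log10(CPM+1). They were obtained from a pooled E. coli screen in which each oligo paired a target with an IS621 bridge RNA target-binding loop, and cells were plated in duplicate on chloramphenicol/ampicillin LB agar or on chloramphenicol/ampicillin/kanamycin with 0.1 mM IPTG.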
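Note: IS621 recombinase and bridge RNA in Escherichia coli cells.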

First: GTCTTGACTTGGGTTCTAACCTGTTGCCA (site GTCTTGACTTG)
Second: GTGAAAGCTTGGGTTCTAACCTGTTGCCA (site GTGAAAGCTTG)
The “recombinant barcode read abundance (log10)” value of the first is lower: 0.102 for the first, 0.73 for the second.

Going from “GTGAAAGCTTGGGTTCTAACCTGTTGCCA (site GTGGAAGCTTG)” to “GTGAACCCTTGGGTTCTAACCTGTTGCAA (site GTGAACCCTTT)”, the “recombinant barcode read abundance (log10)” value rises from 0.0113 to 1.66.

First: GTGAACCCTTGGGTTCTAACCTGTTGCAA (site TCCGGAGCTCG)
Second: GTGAACCCTTGGGTTCTAACCTGTTGCAG (site GTGAACCCTCT)
The “recombinant barcode read abundance (log10)” value of the first is lower: 0.103 for the first, 2.11 for the second.

“GTGAACCCTTGGGTTCTAACCTGTTGCAG (site GTGATCCCTCT)” and “GTGAAGACTTGGGTTCTAACCTGTTGCTT (site AACGTACCTCT)” are within 0.2 log units of each other in “recombinant barcode read abundance (log10)” value: 0.0104 for the first, 0.125 for the second.

Going from “GTGAAGACTTGGGTTCTAACCTGTTGCTT (site GTGAAGACTAA)” to “GTGACCTCTTGGGTTCTAACCTGTTGCCT (site GCTACCTCTAG)”, the “recombinant barcode read abundance (log10)” value falls from 1.41 to 0.0896.

First: GTGACCTCTTGGGTTCTAACCTGTTGCCT (site GTGACCTCTAG)
Second: GTGAGAACTTGGGTTCTAACCTGTTGCCA (site CGTGACCCTCC)
The “recombinant barcode read abundance (log10)” value of the first is higher: 1.49 for the first, 0.0895 for the second.

Compared with “GTGAGAACTTGGGTTCTAACCTGTTGCCA (site GTGAGAACTTG)”, “GTGAGCACTTGGGTTCTAACCTGTTGCGG (site GTGAGAGCTCC)” is lower in “recombinant barcode read abundance (log10)” value: 0.588 for the first, 0.0559 for the second.

First: GTGAGCACTTGGGTTCTAACCTGTTGCGG (site GTGAGCACTCC)
Second: GTGAGGACTTGGGTTCTAACCTGTTGCCA (site GTAACGACTTG)
The “recombinant barcode read abundance (log10)” value of the first is higher: 1.84 for the first, 0.252 for the second.

Going from “GTGAGGACTTGGGTTCTAACCTGTTGCCA (site GTGAGGACTTG)” to “GTGAGGTCTTGGGTTCTAACCTGTTGCTT (site GTGAGGTCTAA)”, the “recombinant barcode read abundance (log10)” value rises from 1.53 to 2.01.

Going from “GTGAGGTCTTGGGTTCTAACCTGTTGCTT (site GTGAGGTCTAC)” to “GTGAGGTCTTGGGTTCTAACCTGTTGCTT (site GTGAGGTCTAG)”, the “recombinant barcode read abundance (log10)” value rises from 0.229 to 1.46.

Compared with “GTGAGGTCTTGGGTTCTAACCTGTTGCTT (site GTGAGGTCTAT)”, “GTGAGTGCTTGGGTTCTAACCTGTTGCCA (site ATAAGTGCTTG)” is lower in “recombinant barcode read abundance (log10)” value: 1.38 for the first, 0.475 for the second.

Compared with “GTGAGTGCTTGGGTTCTAACCTGTTGCCA (site GTGAGTGCTTG)”, “GTGATCCCTTGGGTTCTAACCTGTTGCAG (site GTGAACCCTCT)” is lower in “recombinant barcode read abundance (log10)” value: 0.723 for the first, 0.184 for the second.

First: GTGATCCCTTGGGTTCTAACCTGTTGCAG (site GTGATCCCTCT)
Second: GTGCAACCTTGGGTTCTAACCTGTTGCCT (site AGTGTCACTCC)
The “recombinant barcode read abundance (log10)” value of the first is higher: 1.79 for the first, 0.056 for the second.

Going from “GTGCAACCTTGGGTTCTAACCTGTTGCCT (site GTGCAACCTAG)” to “GTGCACACTTGGGTTCTAACCTGTTGCCA (site GTGCAAACTAG)”, the “recombinant barcode read abundance (log10)” value falls from 1.34 to 0.0839.

First: GTGCACACTTGGGTTCTAACCTGTTGCCA (site GTGCACACTTG)
Second: GTGCCCGCTTGGGTTCTAACCTGTTGCAG (site AAATGACCTAC)
The “recombinant barcode read abundance (log10)” value of the first is higher: 0.736 for the first, 0.0527 for the second.

Going from “GTGCCCGCTTGGGTTCTAACCTGTTGCAG (site GTGCCCGCTCT)” to “GTGCCCTCTTGGGTTCTAACCTGTTGCCG (site GTGCCCGCTCC)”, the “recombinant barcode read abundance (log10)” value falls from 0.961 to 0.0127.

First: GTGCCCTCTTGGGTTCTAACCTGTTGCCG (site GTGCCCTCTCG)
Second: GTGCCTCCTTGGGTTCTAACCTGTTGCTT (site GTGCCTCCTAA)
The “recombinant barcode read abundance (log10)” value of the first is higher: 1.66 for the first, 1.01 for the second.

“GTGCCTCCTTGGGTTCTAACCTGTTGCTT (site GTGTATCCTAA)” and “GTGCGCTCTTGGGTTCTAACCTGTTGCCG (site GTGAGCCCTCG)” are within 0.2 log units of each other in “recombinant barcode read abundance (log10)” value: 0.0505 for the first, 0.076 for the second.

Going from “GTGCGCTCTTGGGTTCTAACCTGTTGCCG (site GTGCGCTCTCG)” to “GTGCGGACTTGGGTTCTAACCTGTTGCGT (site GTGAGGACTAC)”, the “recombinant barcode read abundance (log10)” value falls from 1.49 to 0.676.

First: GTGCGGACTTGGGTTCTAACCTGTTGCGT (site GTGCGGACTAC)
Second: GTGCTCGCTTGGGTTCTAACCTGTTGCCT (site CTGCCCGCTAG)
The “recombinant barcode read abundance (log10)” value of the first is higher: 2.06 for the first, 0.0812 for the second.

First: GTGCTCGCTTGGGTTCTAACCTGTTGCCT (site GTGCTCGCTAG)
Second: GTGGAATCTTGGGTTCTAACCTGTTGCCT (site GTGAGATCTAG)
The “recombinant barcode read abundance (log10)” value of the first is higher: 1.87 for the first, 0.307 for the second.

First: GTGGAATCTTGGGTTCTAACCTGTTGCCT (site GTGGAATCTAG)
Second: GTGGACTCTTGGGTTCTAACCTGTTGCTA (site GTGGACTCTTA)
The “recombinant barcode read abundance (log10)” value of the first is lower: 1.6 for the first, 2.44 for the second.

First: GTGGACTCTTGGGTTCTAACCTGTTGCTA (site GTGTACTCTAA)
Second: GTGGCCACTTGGGTTCTAACCTGTTGCCT (site GTAGCCACTAG)
The “recombinant barcode read abundance (log10)” value of the first is lower: 0.0609 for the first, 1.86 for the second.

Compared with “GTGGCCACTTGGGTTCTAACCTGTTGCCT (site GTCGCCACTAG)”, “GTGGCCACTTGGGTTCTAACCTGTTGCCT (site GTGGCCACTAG)” is higher in “recombinant barcode read abundance (log10)” value: 0.152 for the first, 1.74 for the second.

“GTGGCCACTTGGGTTCTAACCTGTTGCCT (site GTTGCCACTAG)” and “GTGGGCACTTGGGTTCTAACCTGTTGCCT (site AGAAAGGCTGC)” are within 0.2 log units of each other in “recombinant barcode read abundance (log10)” value: 0.229 for the first, 0.166 for the second.

“GTGGGCACTTGGGTTCTAACCTGTTGCCT (site GTGGGCACTAG)” and “GTGGTATCTTGGGTTCTAACCTGTTGCCT (site GTGGTAACTAG)” are within 0.2 log units of each other in “recombinant barcode read abundance (log10)” value: 0.225 for the first, 0.268 for the second.

“GTGGTATCTTGGGTTCTAACCTGTTGCCT (site GTGGTACCTAG)” and “GTGGTATCTTGGGTTCTAACCTGTTGCCT (site GTGGTAGCTAG)” are within 0.2 log units of each other in “recombinant barcode read abundance (log10)” value: 0.396 for the first, 0.312 for the second.

Compared with “GTGGTATCTTGGGTTCTAACCTGTTGCCT (site GTGGTATCTAG)”, “GTGTACCCTTGGGTTCTAACCTGTTGCAC (site AGTATAACTCA)” is lower in “recombinant barcode read abundance (log10)” value: 1.68 for the first, 0.132 for the second.

Going from “GTGTACCCTTGGGTTCTAACCTGTTGCAC (site GTGTACCCTGT)” to “GTGTACCCTTGGGTTCTAACCTGTTGCGA (site GTGTACCCTAC)”, the “recombinant barcode read abundance (log10)” value falls from 2.35 to 0.129.

“GTGTACCCTTGGGTTCTAACCTGTTGCGA (site GTGTACCCTCC)” and “GTGTACCCTTGGGTTCTAACCTGTTGCGA (site GTGTACCCTGC)” are within 0.2 log units of each other in “recombinant barcode read abundance (log10)” value: 0.0447 for the first, 0.0937 for the second.

Going from “GTGTACCCTTGGGTTCTAACCTGTTGCGA (site GTGTACCCTTC)” to “GTGTATACTTGGGTTCTAACCTGTTGCCT (site GTATATACTAG)”, the “recombinant barcode read abundance (log10)” value falls from 2.35 to 1.12.

First: GTGTATACTTGGGTTCTAACCTGTTGCCT (site GTCTATACTAG)
Second: GTGTATACTTGGGTTCTAACCTGTTGCCT (site GTGTATACTAG)
The “recombinant barcode read abundance (log10)” value of the first is lower: 0.173 for the first, 1.24 for the second.

“GTGTATACTTGGGTTCTAACCTGTTGCCT (site GTTTATACTAG)” and “GTGTCGCCTTGGGTTCTAACCTGTTGCCT (site GTGTCGCCTAC)” are within 0.2 log units of each other in “recombinant barcode read abundance (log10)” value: 0.075 for the first, 0.224 for the second.

Compared with “GTGTCGCCTTGGGTTCTAACCTGTTGCCT (site GTGTCGCCTAG)”, “GTGTCGCCTTGGGTTCTAACCTGTTGCGT (site GTGTCGCCTAC)” is higher in “recombinant barcode read abundance (log10)” value: 0.845 for the first, 1.72 for the second.

“GTGTCGCCTTGGGTTCTAACCTGTTGCGT (site GTGTCGCCTAG)” and “GTGTCTCCTTGGGTTCTAACCTGTTGCAT (site GTGTATCCTAT)” are within 0.2 log units of each other in “recombinant barcode read abundance (log10)” value: 0.0604 for the first, 0.162 for the second.

Compared with “GTGTCTCCTTGGGTTCTAACCTGTTGCAT (site GTGTCTCCTAT)”, “GTGTCTCCTTGGGTTCTAACCTGTTGCAT (site GTGTGTCCTAT)” is lower in “recombinant barcode read abundance (log10)” value: 1.54 for the first, 0.457 for the second.

First: GTGTCTCCTTGGGTTCTAACCTGTTGCAT (site GTGTTTCCTAT)
Second: GTGTGTTCTTGGGTTCTAACCTGTTGCCT (site GTGTGTACTAG)
The “recombinant barcode read abundance (log10)” value of the first is lower: 0.243 for the first, 1.15 for the second.

“GTGTGTTCTTGGGTTCTAACCTGTTGCCT (site GTGTGTCCTAG)” and “GTGTGTTCTTGGGTTCTAACCTGTTGCCT (site GTGTGTGCTAG)” are within 0.2 log units of each other in “recombinant barcode read abundance (log10)” value: 0.0466 for the first, 0 for the second.

Compared with “GTGTGTTCTTGGGTTCTAACCTGTTGCCT (site GTGTGTTCTAG)”, “GTGTTGCCTTGGGTTCTAACCTGTTGCCT (site GAGTTGCCTAG)” is lower in “recombinant barcode read abundance (log10)” value: 0.726 for the first, 0.267 for the second.

Going from “GTGTTGCCTTGGGTTCTAACCTGTTGCCT (site GCGTTGCCTAG)” to “GTGTTGCCTTGGGTTCTAACCTGTTGCCT (site GGGTTGCCTAG)”, the “recombinant barcode read abundance (log10)” value falls from 0.392 to 0.0383.

Going from “GTGTTGCCTTGGGTTCTAACCTGTTGCCT (site GTGTTGCCTAG)” to “GTTACCTCTTGGGTTCTAACCTGTTGCCT (site CAAGGTCCTCC)”, the “recombinant barcode read abundance (log10)” value falls from 0.73 to 0.0556.

“GTTACCTCTTGGGTTCTAACCTGTTGCCT (site GTTACCTCTAG)” and “GTTAGCCCTTGGGTTCTAACCTGTTGCAT (site GTTAGCCCTAT)” are within 0.2 log units of each other in “recombinant barcode read abundance (log10)” value: 0.859 for the first, 0.928 for the second.

“GTTAGCCCTTGGGTTCTAACCTGTTGCAT (site TCACAGACTCG)” and “GTTAGCCCTTGGGTTCTAACCTGTTGCGG (site GTCAGCCCTCC)” are within 0.2 log units of each other in “recombinant barcode read abundance (log10)” value: 0.0525 for the first, 0.167 for the second.
